Patent US20140220552A1, “BLOOD COLLECTION DEVICES CONTAINING CONTACT PATHWAY INHIBITION ADDITIVES” (Becton, Dickinson and Company, priority 2013, published 2014)
Entries after “also recorded” stand apart in the source; their conditions may differ.

How the values were obtained:
[1] = tested on: contact coagulation pathway; test: activated partial thromboplastin time (aPTT) assay in plasma; format: biochemical, human; settings: plasma containing inhibitor, FIG. 6, anti-FXI antibody at 7.5 μg/mL
Text: (§1) FIG. 6 was obtained by performing matched aPTT, PT, and TT assays from plasma containing various inhibitors. These assays are well known to those skilled in the art and are not described in great detail here. […] Corn trypsin inhibitor (CTI) was included as a control since it is the factor XIIa inhibitor currently available in a blood collection tube.
(§2) Citrated human WB is transferred from a blood collection bag into coated (siliconized) glass or plastic blood collection tubes, or uncoated glass, polypropylene (PP), polystyrene (PS), or polyethylene terephthalate (PET) conical bottom tubes, either alone or in the presence of inhibitors targeting kallikrein (e.g. aprotinin) or FXIa (e.g. anti-human Factor XI antibody). After 15 minutes incubation, the TEG R value is obtained immediately after addition of 10 mM CaCl2. Matched plasma specimens are analyzed by the CAT in the presence and absence of 1 picomolar Tissue Factor (TF) and by activated partial thromboplastin time (APTT; Stago Compact). Data are analyzed by ANOVA with Tukey's post-test and by linear regression.

thrombin = test: TT assay in plasma (exogenous thrombin); format: biochemical, human; settings: plasma containing inhibitor, FIG. 6
Text: as §1

TF coagulation pathway = test: PT assay in plasma (high dose tissue factor); format: biochemical, human; settings: for thrombin generation in tests that monitor the TF coagulation pathway exclusively: identical samples as aPTT, FIG. 6 lower panels; for PT clotting time result: plasma containing inhibitor, FIG. 6
Text: as §1
This verifies that aprotinin exclusively suppresses thrombin formation through the contact coagulation pathway but not through the TF pathway.

[2] = sterilization stability of the additive in a blood collection tube; format: physicochemical
Text: FIG. 7 provides a comparison of kallikrein, factor XIIa, and factor IX inhibition for the purposes of mitigating contact pathway contributions to thrombin generation.
An advantage of using aprotinin over CTI or anti-Factor XI antibody is that neither of the latter two inhibitors can be present in a tube that has been sterilized.

[3] = tested on: contact coagulation pathway; test: Thrombelastography (TEG) citrated-native whole blood clotting time (R time) after recalcification; format: biochemical, human
Description: FIGS. 2A and 2B are a table and chart comparing recalcified clotting times for tubes made from various materials using a Thrombelastograph® (TEG) 5000 Hemostasis Analyzer. […] Briefly, BD Vacutainer® 369714 glass and 363083 plastic citrate tubes were washed and dried to remove the citrate additive. Afterwards, tubes were filled to capacity using a commercial bag of citrated human whole blood. Samples were incubated for 15 minutes at room temperature with gentle rocking to promote blood contact with the surface material of the tube wall. Finally, the whole blood clotting time was measured using combined recalcification and TEG. […] Furthermore, it is important to note that only highly sensitive coagulation assays that are performed in the absence of a strong contact pathway activator will be sensitive to these differences.
The titration was performed by evaluating whole blood clotting time (TEG R time). A minimally effective dose was determined at 1000 kallikrein inhibitor units (1000 KIU) per mL of blood as concentrations below that only provided mean clotting times that were either equivalent or lower to that of siliconized glass.
The titration was performed by evaluating whole blood clotting time (TEG R time).
as §2
As shown in FIG. 4(A) various concentrations of aprotinin were used in tests to determine the impact on whole blood clotting time using TEG. […]

thrombin generation = test: Calibrated Automated Thrombogram (CAT) thrombin generation assay in citrated plasma; format: biochemical, human
Text: FIGS. 3A and 3B is a table and chart comparing thrombin generation from citrated plasma obtained from tubes made of various materials using the Calibrated Automated Thrombogram (CAT) assay. The CAT assay, rather than measuring coagulation, combines the use of a fluorogenic substrate that is cleaved in the presence of thrombin as well as a calibrator to provide a quantitative measurement of thrombin generation in a recalcified plasma sample. The predominant use of this assay is to examine the thrombin generation profile of a clinical research sample in response to tissue factor (TF). […] The charts contained in FIG. 3B provide example thrombin generation curves that were used to populate the data table in FIG. 3A.
as §2, with “After 15 minutes incubation, the TEG R value is obtained immediately after addition of 10 mM CaCl2.” left out, “regression. […]” for “regression.”

Substance	aPTT result [1]	TT clotting time result (thrombin)	thrombin generation in tests that monitor the TF coagulation pathway exclusively (TF coagulation pathway)	PT clotting time result (TF coagulation pathway)	aPTT result ([1]; listed as Aprotinin)	sterilization stability [2]	whole blood clotting time (TEG R time) ([3]; 2000 KIU/mL aprotinin, blood in uncoated glass, compared with siliconized glass or plastic)	minimally effective dose by whole blood clotting time (TEG R time) ([3]; aprotinin titration in citrated blood, lower concentrations gave clotting times equivalent or lower to siliconized glass)	aprotinin concentration mitigating the contact coagulation pathway in uncoated glass tubes to a level equivalent to siliconized glass or plastic tubes ([3]; citrated blood in uncoated glass tubes, TEG) [KIU/mL]	mitigation of contact pathway contributions to thrombin generation (CAT) (thrombin generation; glass and plastic citrate tubes, FIG. 7)	thrombin generation (CAT), effect of increasing aprotinin (thrombin generation; siliconized glass and plastic tubes, FIG. 4B)
Corn trypsin inhibitor [CTI]	Equivalent inhibition	none of the inhibitors produced prolonged PT or TT assays	unaffected	none of the inhibitors produced prolonged PT or TT assays							
aprotinin	equivalent to or greater than the time to generate thrombin in the presence of CTI and anti-Factor XI antibody	none of the inhibitors produced prolonged PT or TT assays	unaffected	none of the inhibitors produced prolonged PT or TT assays	dose dependent effect	sterilization stable	longer clotting times than that of blood stored in either siliconized glass or plastic	1000 KIU per mL of blood	≥ 1000	robustly diminished; also recorded: equivalent to that of CTI and anti-Factor XI antibody	delays and reduces thrombin generation in a dose dependent fashion; also recorded: thrombin generation is decreased and delayed
